From ChEMBL document CHEMBL1201861, “Genomics of Drug Sensitity in Cancer screening data, Wellcome Trust Sanger Institute”

These compounds were tested on Calu-6 (assay: cells). Details: Homo sapiens, Calu-6.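 Note: growth of human Calu-6 cells, read out by a cell viability assay, IC50 marking inhibition.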
Format: functional, cell-based, Homo sapiens
Description: SANGER: Inhibition of human Calu-6 cell growth in a cell viability assay.

Structure (SMILES)	IC50
Cn1cnc2c(F)c(Nc3ccc(Br)cc3Cl)c(C(=O)NOCCO)cc21 [SELUMETINIB]	> 4 µM

These compounds were tested on AM-38 (assay: cells). Details: Homo sapiens, AM-38.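 Note: growth inhibition of AM-38 cells of human origin, read out by a cell viability assay.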
Format: functional, cell-based, Homo sapiens
Description: SANGER: Inhibition of human AM-38 cell growth in a cell viability assay.

Structure (SMILES)	IC50
Cn1cnc2c(F)c(Nc3ccc(Br)cc3Cl)c(C(=O)NOCCO)cc21 [SELUMETINIB]	> 4 µM

Each compound was assayed on EW-1 (assay: cells). Details: Homo sapiens, EW-1.
Format: functional, cell-based, Homo sapiens
Description: SANGER: Inhibition of human EW-1 cell growth in a cell viability assay.

Structure (SMILES)	IC50
Cn1cnc2c(F)c(Nc3ccc(Br)cc3Cl)c(C(=O)NOCCO)cc21 [SELUMETINIB]	> 4 µM

What follows are compounds tested on NCI-H226 (assay: cells). Details: Homo sapiens, NCI-H226.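 Note: cell viability read-out used to gauge growth inhibition of the cells.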
Format: functional, cell-based, Homo sapiens
Description: SANGER: Inhibition of human NCI-H226 cell growth in a cell viability assay.

Structure (SMILES)	IC50
Cn1cnc2c(F)c(Nc3ccc(Br)cc3Cl)c(C(=O)NOCCO)cc21 [SELUMETINIB]	> 4 µM

Each compound was assayed on U-87 MG (assay: cells). Details: Homo sapiens, U-87 MG.
Format: functional, cell-based, Homo sapiens, U-87MG ATCC
Description: SANGER: Inhibition of human U-87-MG cell growth in a cell viability assay.

Structure (SMILES)	IC50
Cn1cnc2c(F)c(Nc3ccc(Br)cc3Cl)c(C(=O)NOCCO)cc21 [SELUMETINIB]	> 4 µM

The compounds below were run on A498 (assay: cells). Details: Homo sapiens, A498.
Format: functional, cell-based, Homo sapiens
Description: SANGER: Inhibition of human A498 cell growth in a cell viability assay.

Structure (SMILES)	IC50
Cn1cnc2c(F)c(Nc3ccc(Br)cc3Cl)c(C(=O)NOCCO)cc21 [SELUMETINIB]	> 4 µM

The compounds below were run on NB5 (assay: cells). Details: Homo sapiens, NB5.
Format: functional, cell-based, Homo sapiens
Description: SANGER: Inhibition of human NB5 cell growth in a cell viability assay.

Structure (SMILES)	IC50
Cn1cnc2c(F)c(Nc3ccc(Br)cc3Cl)c(C(=O)NOCCO)cc21 [SELUMETINIB]	2.57 µM

What follows are compounds tested on SK-MEL-2 (assay: cells). Details: Homo sapiens, SK-MEL-2.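 Note: growth inhibition of human SK-MEL-2 cells measured with a cell viability assay.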
Format: functional, cell-based, Homo sapiens
Description: SANGER: Inhibition of human SK-MEL-2 cell growth in a cell viability assay.

Structure (SMILES)	IC50
Cn1cnc2c(F)c(Nc3ccc(Br)cc3Cl)c(C(=O)NOCCO)cc21 [SELUMETINIB]	0.405 µM

The compounds below were run on TE-9 (assay: cells). Details: Homo sapiens, TE-9.
Format: functional, cell-based, Homo sapiens
Description: SANGER: Inhibition of human TE-9 cell growth in a cell viability assay.

Structure (SMILES)	IC50
Cn1cnc2c(F)c(Nc3ccc(Br)cc3Cl)c(C(=O)NOCCO)cc21 [SELUMETINIB]	> 4 µM

The compounds below were run on LNCaP-Clone-FGC (assay: cells). Details: Homo sapiens, LNCaP-Clone-FGC.
Format: functional, cell-based, Homo sapiens
Description: SANGER: Inhibition of human LNCaP-Clone-FGC cell growth in a cell viability assay.

Structure (SMILES)	IC50
Cn1cnc2c(F)c(Nc3ccc(Br)cc3Cl)c(C(=O)NOCCO)cc21 [SELUMETINIB]	> 4 µM

These compounds were tested on ACN (assay: cells). Details: Homo sapiens, ACN.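 Note: growth inhibition of the human ACN cell line, read out via cell viability testing.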
Format: functional, cell-based, Homo sapiens
Description: SANGER: Inhibition of human ACN cell growth in a cell viability assay.

Structure (SMILES)	IC50
Cn1cnc2c(F)c(Nc3ccc(Br)cc3Cl)c(C(=O)NOCCO)cc21 [SELUMETINIB]	0.567 µM

The compounds below were run on NCI-H1092 (assay: cells). Details: Homo sapiens, NCI-H1092.
Format: functional, cell-based, Homo sapiens
Description: SANGER: Inhibition of human NCI-H1092 cell growth in a cell viability assay.

Structure (SMILES)	IC50
Cn1cnc2c(F)c(Nc3ccc(Br)cc3Cl)c(C(=O)NOCCO)cc21 [SELUMETINIB]	> 4 µM

The compounds below were run on UACC-257 (assay: cells). Details: Homo sapiens, UACC-257.
Format: functional, cell-based, Homo sapiens
Description: SANGER: Inhibition of human UACC-257 cell growth in a cell viability assay.

Structure (SMILES)	IC50
Cn1cnc2c(F)c(Nc3ccc(Br)cc3Cl)c(C(=O)NOCCO)cc21 [SELUMETINIB]	0.322 µM

Each compound was assayed on C8166 (assay: cells). Details: Homo sapiens, C8166.
Format: functional, cell-based, Homo sapiens
Description: SANGER: Inhibition of human C8166 cell growth in a cell viability assay.

Structure (SMILES)	IC50
Cn1cnc2c(F)c(Nc3ccc(Br)cc3Cl)c(C(=O)NOCCO)cc21 [SELUMETINIB]	> 4 µM

What follows are compounds tested on D-263MG (assay: cells). Details: Homo sapiens, D-263MG.
Format: functional, cell-based, Homo sapiens
Description: SANGER: Inhibition of human D-263MG cell growth in a cell viability assay.

Structure (SMILES)	IC50
Cn1cnc2c(F)c(Nc3ccc(Br)cc3Cl)c(C(=O)NOCCO)cc21 [SELUMETINIB]	1.18 µM

Each compound was assayed on LC-2-ad (assay: cells). Details: Homo sapiens, LC-2-ad.
Format: functional, cell-based, Homo sapiens
Description: SANGER: Inhibition of human LC-2-ad cell growth in a cell viability assay.

Structure (SMILES)	IC50
Cn1cnc2c(F)c(Nc3ccc(Br)cc3Cl)c(C(=O)NOCCO)cc21 [SELUMETINIB]	> 4 µM

The compounds below were run on SK-PN-DW (assay: cells). Details: Homo sapiens, SK-PN-DW.
Format: functional, cell-based, Homo sapiens
Description: SANGER: Inhibition of human SK-PN-DW cell growth in a cell viability assay.

Structure (SMILES)	IC50
Cn1cnc2c(F)c(Nc3ccc(Br)cc3Cl)c(C(=O)NOCCO)cc21 [SELUMETINIB]	> 4 µM

The compounds below were run on DB (assay: cells). Details: Homo sapiens, DB.
Format: functional, cell-based, Homo sapiens
Description: SANGER: Inhibition of human DB cell growth in a cell viability assay.

Structure (SMILES)	IC50
Cn1cnc2c(F)c(Nc3ccc(Br)cc3Cl)c(C(=O)NOCCO)cc21 [SELUMETINIB]	> 4 µM

Each compound was assayed on KM12 (assay: cells). Details: Homo sapiens, KM12.
Format: functional, cell-based, Homo sapiens
Description: SANGER: Inhibition of human KM12 cell growth in a cell viability assay.

Structure (SMILES)	IC50
Cn1cnc2c(F)c(Nc3ccc(Br)cc3Cl)c(C(=O)NOCCO)cc21 [SELUMETINIB]	2.54 µM

The compounds below were run on RS4-11 (assay: cells). Details: Homo sapiens, RS4-11.
Format: functional, cell-based, Homo sapiens
Description: SANGER: Inhibition of human RS4-11 cell growth in a cell viability assay.

Structure (SMILES)	IC50
Cn1cnc2c(F)c(Nc3ccc(Br)cc3Cl)c(C(=O)NOCCO)cc21 [SELUMETINIB]	> 4 µM

Each compound was assayed on NH-12 (assay: cells). Details: Homo sapiens, NH-12.
Format: functional, cell-based, Homo sapiens
Description: SANGER: Inhibition of human NH-12 cell growth in a cell viability assay.

Structure (SMILES)	IC50
Cn1cnc2c(F)c(Nc3ccc(Br)cc3Cl)c(C(=O)NOCCO)cc21 [SELUMETINIB]	> 4 µM

These compounds were tested on HT-144 (assay: cells). Details: Homo sapiens, HT-144.
Format: functional, cell-based, Homo sapiens
Description: SANGER: Inhibition of human HT-144 cell growth in a cell viability assay.

Structure (SMILES)	IC50
Cn1cnc2c(F)c(Nc3ccc(Br)cc3Cl)c(C(=O)NOCCO)cc21 [SELUMETINIB]	0.089 µM

What follows are compounds tested on HT (assay: cells). Details: Homo sapiens, HT.
Format: functional, cell-based, Homo sapiens
Description: SANGER: Inhibition of human HT cell growth in a cell viability assay.

Structure (SMILES)	IC50
Cn1cnc2c(F)c(Nc3ccc(Br)cc3Cl)c(C(=O)NOCCO)cc21 [SELUMETINIB]	> 4 µM

Each compound was assayed on RXF 393 (assay: cells). Details: Homo sapiens, RXF 393.
Format: functional, cell-based, Homo sapiens
Description: SANGER: Inhibition of human RXF393 cell growth in a cell viability assay.

Structure (SMILES)	IC50
Cn1cnc2c(F)c(Nc3ccc(Br)cc3Cl)c(C(=O)NOCCO)cc21 [SELUMETINIB]	> 4 µM

Each compound was assayed on LB996-RCC (assay: cells). Details: Homo sapiens, LB996-RCC.
Format: functional, cell-based, Homo sapiens
Description: SANGER: Inhibition of human LB996-RCC cell growth in a cell viability assay.

Structure (SMILES)	IC50
Cn1cnc2c(F)c(Nc3ccc(Br)cc3Cl)c(C(=O)NOCCO)cc21 [SELUMETINIB]	3.95 µM

What follows are compounds tested on SJSA-1 (assay: cells). Details: Homo sapiens, SJSA-1.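 Note: growth inhibition of human SJSA-1 cells, read out through a cell viability measurement.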
Format: functional, cell-based, Homo sapiens
Description: SANGER: Inhibition of human SJSA-1 cell growth in a cell viability assay.

Structure (SMILES)	IC50
Cn1cnc2c(F)c(Nc3ccc(Br)cc3Cl)c(C(=O)NOCCO)cc21 [SELUMETINIB]	3.78 µM

What follows are compounds tested on MZ1-PC (assay: cells). Details: Homo sapiens, MZ1-PC.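 Note: cell viability assay measuring growth inhibition of human MZ1-PC cells.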
Format: functional, cell-based, Homo sapiens
Description: SANGER: Inhibition of human MZ1-PC cell growth in a cell viability assay.

Structure (SMILES)	IC50
Cn1cnc2c(F)c(Nc3ccc(Br)cc3Cl)c(C(=O)NOCCO)cc21 [SELUMETINIB]	3.32 µM

The compounds below were run on HEL (assay: cells). Details: Homo sapiens, HEL.
Format: functional, cell-based, Homo sapiens
Description: SANGER: Inhibition of human HEL cell growth in a cell viability assay.

Structure (SMILES)	IC50
Cn1cnc2c(F)c(Nc3ccc(Br)cc3Cl)c(C(=O)NOCCO)cc21 [SELUMETINIB]	> 4 µM

Each compound was assayed on NCI-H446 (assay: cells). Details: Homo sapiens, NCI-H446.
Format: functional, cell-based, Homo sapiens
Description: SANGER: Inhibition of human NCI-H446 cell growth in a cell viability assay.

Structure (SMILES)	IC50
Cn1cnc2c(F)c(Nc3ccc(Br)cc3Cl)c(C(=O)NOCCO)cc21 [SELUMETINIB]	> 4 µM

What follows are compounds tested on D-247MG (assay: cells). Details: Homo sapiens, D-247MG.
Format: functional, cell-based, Homo sapiens
Description: SANGER: Inhibition of human D-247MG cell growth in a cell viability assay.

Structure (SMILES)	IC50
Cn1cnc2c(F)c(Nc3ccc(Br)cc3Cl)c(C(=O)NOCCO)cc21 [SELUMETINIB]	> 4 µM

What follows are compounds tested on HCC2218 (assay: cells). Details: Homo sapiens, HCC2218.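 Note: cell viability assay read-out, with IC50 given as the concentration that inhibits growth of the cell line.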
Format: functional, cell-based, Homo sapiens
Description: SANGER: Inhibition of human HCC2218 cell growth in a cell viability assay.

Structure (SMILES)	IC50
Cn1cnc2c(F)c(Nc3ccc(Br)cc3Cl)c(C(=O)NOCCO)cc21 [SELUMETINIB]	2.48 µM

Each compound was assayed on SCH (assay: cells). Details: Homo sapiens, SCH.
Format: functional, cell-based, Homo sapiens
Description: SANGER: Inhibition of human SCH cell growth in a cell viability assay.

Structure (SMILES)	IC50
Cn1cnc2c(F)c(Nc3ccc(Br)cc3Cl)c(C(=O)NOCCO)cc21 [SELUMETINIB]	> 4 µM

Each compound was assayed on TE-10 (assay: cells). Details: Homo sapiens, TE-10.
Format: functional, cell-based, Homo sapiens
Description: SANGER: Inhibition of human TE-10 cell growth in a cell viability assay.

Structure (SMILES)	IC50
Cn1cnc2c(F)c(Nc3ccc(Br)cc3Cl)c(C(=O)NOCCO)cc21 [SELUMETINIB]	> 4 µM

What follows are compounds tested on JAR (assay: cells). Details: Homo sapiens, JAR.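 Note: growth inhibition of human JAR cells determined with a cell viability assay.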
Format: functional, cell-based, Homo sapiens
Description: SANGER: Inhibition of human JAR cell growth in a cell viability assay.

Structure (SMILES)	IC50
Cn1cnc2c(F)c(Nc3ccc(Br)cc3Cl)c(C(=O)NOCCO)cc21 [SELUMETINIB]	> 4 µM

The compounds below were run on SNU-5 (assay: cells). Details: Homo sapiens, SNU-5.
Format: functional, cell-based, Homo sapiens
Description: SANGER: Inhibition of human NCI-SNU-5 cell growth in a cell viability assay.

Structure (SMILES)	IC50
Cn1cnc2c(F)c(Nc3ccc(Br)cc3Cl)c(C(=O)NOCCO)cc21 [SELUMETINIB]	3.61 µM

The compounds below were run on Ramos-2G6-4C10 (assay: cells). Details: Homo sapiens, Ramos-2G6-4C10.
Format: functional, cell-based, Homo sapiens
Description: SANGER: Inhibition of human Ramos-2G6-4C10 cell growth in a cell viability assay.

Structure (SMILES)	IC50
Cn1cnc2c(F)c(Nc3ccc(Br)cc3Cl)c(C(=O)NOCCO)cc21 [SELUMETINIB]	> 4 µM

What follows are compounds tested on NB10 (assay: cells). Details: Homo sapiens, NB10.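 Note: growth inhibition of NB10 cells, read out by a cell viability assay.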
Format: functional, cell-based, Homo sapiens
Description: SANGER: Inhibition of human NB10 cell growth in a cell viability assay.

Structure (SMILES)	IC50
Cn1cnc2c(F)c(Nc3ccc(Br)cc3Cl)c(C(=O)NOCCO)cc21 [SELUMETINIB]	> 4 µM

What follows are compounds tested on MZ7-mel (assay: cells). Details: Homo sapiens, MZ7-mel.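 Note: growth inhibition of human MZ7-mel cells, measured by a cell viability assay.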
Format: functional, cell-based, Homo sapiens
Description: SANGER: Inhibition of human MZ7-mel cell growth in a cell viability assay.

Structure (SMILES)	IC50
Cn1cnc2c(F)c(Nc3ccc(Br)cc3Cl)c(C(=O)NOCCO)cc21 [SELUMETINIB]	> 4 µM

The compounds below were run on SW684 (assay: cells). Details: Homo sapiens, SW684.
Format: functional, cell-based, Homo sapiens
Description: SANGER: Inhibition of human SW684 cell growth in a cell viability assay.

Structure (SMILES)	IC50
Cn1cnc2c(F)c(Nc3ccc(Br)cc3Cl)c(C(=O)NOCCO)cc21 [SELUMETINIB]	> 4 µM

What follows are compounds tested on TE-6 (assay: cells). Details: Homo sapiens, TE-6.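 Note: growth inhibition of TE-6 cells, read out with a cell viability assay.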
Format: functional, cell-based, Homo sapiens
Description: SANGER: Inhibition of human TE-6 cell growth in a cell viability assay.

Structure (SMILES)	IC50
Cn1cnc2c(F)c(Nc3ccc(Br)cc3Cl)c(C(=O)NOCCO)cc21 [SELUMETINIB]	> 4 µM

These compounds were tested on Becker (assay: cells). Details: Homo sapiens, Becker.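 Note: growth inhibition of Becker cells, read out with a cell viability assay.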
Format: functional, cell-based, Homo sapiens
Description: SANGER: Inhibition of human Becker cell growth in a cell viability assay.

Structure (SMILES)	IC50
Cn1cnc2c(F)c(Nc3ccc(Br)cc3Cl)c(C(=O)NOCCO)cc21 [SELUMETINIB]	> 4 µM

These compounds were tested on BT-474 (assay: cells). Details: Homo sapiens, BT-474.
Format: functional, cell-based, Homo sapiens
Description: SANGER: Inhibition of human BT-474 cell growth in a cell viability assay.

Structure (SMILES)	IC50
Cn1cnc2c(F)c(Nc3ccc(Br)cc3Cl)c(C(=O)NOCCO)cc21 [SELUMETINIB]	> 4 µM

Each compound was assayed on DU-4475 (assay: cells). Details: Homo sapiens, DU-4475.
Format: functional, cell-based, Homo sapiens
Description: SANGER: Inhibition of human DU-4475 cell growth in a cell viability assay.

Structure (SMILES)	IC50
Cn1cnc2c(F)c(Nc3ccc(Br)cc3Cl)c(C(=O)NOCCO)cc21 [SELUMETINIB]	0.0337 µM

The compounds below were run on NCI-H69 (assay: cells). Details: Homo sapiens, NCI-H69.
Format: functional, cell-based, Homo sapiens
Description: SANGER: Inhibition of human NCI-H69 cell growth in a cell viability assay.

Structure (SMILES)	IC50
Cn1cnc2c(F)c(Nc3ccc(Br)cc3Cl)c(C(=O)NOCCO)cc21 [SELUMETINIB]	> 4 µM

These compounds were tested on QIMR-WIL (assay: cells). Details: Homo sapiens, QIMR-WIL.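 Note: growth inhibition of QIMR-WIL cells, read out with a cell viability assay.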
Format: functional, cell-based, Homo sapiens
Description: SANGER: Inhibition of human QIMR-WIL cell growth in a cell viability assay.

Structure (SMILES)	IC50
Cn1cnc2c(F)c(Nc3ccc(Br)cc3Cl)c(C(=O)NOCCO)cc21 [SELUMETINIB]	1.34 µM
